The subject of experiment [1] is Pseudomonas aeruginosa (PA), Proteus mirabilis (PM), and Staphylococcus aureus (SA). The experiment can be described thus: Microbial cell intactness: ΔCT by real-time RT-PCR, spiked whole blood samples. It counts as cell-based. The note with it: 0.94% w/v detergent in type 3 reagent/blood mixture; all three species.
Experiment [2] shares this test system. The experiment can be described thus: Microbial cell intactness: ΔCT by real-time RT-PCR, spiked phosphate buffer samples. The note with it: Triton X-100 0-0.75% w/v with SPS 15 mg/mL, no high pH; all cell types. It counts as cell-based. As for the experimental part: The effect of Triton X-100, one of the components of the type 2 blood lysis reagent, on microbial cell intactness, was experimentally investigated in the absence of a high pH environment (e.g. in the absence of a carbonate-bicarbonate buffer). Experiments were performed by contacting spiked phosphate buffer samples containing Pseudomonas aeruginosa (PA), Proteus mirabilis (PM), and Staphylococcus aureus (SA), prepared according to Example 3 below, with solutions containing Triton X-100 and SPS, such that the final concentrations of Triton X-100 in the various samples were 0, 0.188, 0.375, 0.55 and 0.75% w/v, and the SPS concentration was 15 mg/mL. Sample preparation and real time RT-PCR was performed according to the methods provided in Example 5 below. Spiked phosphate buffer samples, prepared according to the method of Example 3 below, were also prepared for spiked control and subjected to real time RT-PCR according to the method of Example 4 below. The ΔCT value, determined based on the difference between the spiked phosphate buffer sample CT value and the spiked control CT value, was employed as a proxy for microbial cell intactness after exposure to Triton X-100.
Bacterial cell suspension stock of 50 μL, having about 10^3 CFU of respective bacterial cells was added to 5 mL of 1 mM Phosphate Buffer (PB) and mixed by gentle vortexing. […]

Where only a bound is given, the exact number is not on record here.

Regarding `CCCCCCCCCCCC(=O)OCCOCCOCCOCCOCCOCCOCCOCCOCCOCCOCCOCCOCCOCCOCCOCCOCCOCCOCCOCCOCC(OCCOCCOCCOCCOCCOCCOCCOCCOCCOCCOCCOCCOCCOCCOCCOCCOCCOCCOCCOCCO)C1OCC(OCCOCCOCCOCCOCCOCCOCCOCCOCCOCCOCCOCCOCCOCCOCCOCCOCCOCCOCCOCCO)C1OCCOCCOCCOCCOCCOCCOCCOCCOCCOCCOCCOCCOCCOCCOCCOCCOCCOCCOCCOCCO` (centres unmarked) [Tween 20, Polysorbate 20], in experiment [1], the “ΔCT, Tween 20 compared with Triton X-100 as non-ionic detergent” value is on record as “very similar”.

Turning to “polyethylene glycol p-(1,1,3,3-tetramethylbutyl)-phenyl ether [Triton X-100]”, the ΔCT in experiment [2] was ≤ 2.

For the origin of these results see patent US12253513B2, “Methods and compositions for the selective lysis of blood cells and separation of microbial cells” (QVELLA CORPORATION, priority 2018, dated 2025).
